For 88 compounds, XC50 results are on record in ChEMBL document CHEMBL1157539, “Thousands of chemical starting points for antimalarial lead identification” (Nature, 2010).

The assay deals with Plasmodium falciparum. As to the kind of experiment: GSK_TCMDC: Inhibition of Plasmodium falciparum 3D7 in whole erythrocytes, using parasite LDH activity as an index of growth. Format: functional, organism-based. The following applies: Plasmodium falciparum, 3D7.
`CCN(CC)CCN(Cc1ccc(-c2ccc(C(F)(F)F)cc2)cc1)C(=O)Cn1c(CCc2ccc(F)cc2)nc(=O)c2ccccc21` displayed an XC50 of 1070 nM.
With `COCCCn1c(=N)c(C(=O)NCCc2ccc(OC)cc2)cc2c(=O)n3cccc(C)c3nc21` the figure was 1030 nM; with `CCc1cn(C)c2c(N3CCCC3=O)cc(C(=O)N[C@@H](Cc3ccccc3)[C@H](O)CNC(C)(C)c3cccc(C(F)(F)F)c3)cc12`, 106 nM.
The value for `Cc1cc(CN2CCC(C(=O)Nc3ccc(-c4nc5ccccc5[nH]4)cc3)CC2)oc1C` was 1450 nM; that for `CS(=O)(=O)CCNc1nccc(N2CCc3ncnc(Nc4ccc(OCc5cccc(F)c5)c(Cl)c4)c3C2)n1` was 132 nM.
With `CN(C)Cc1c(O)ccc2oc(Cc3ccccc3)cc12` the figure was 912 nM; with `Cc1cc(C2CCN(CCCCNC(=O)c3ccc(-c4ccc(C#N)cc4)cc3)CC2)c(C)cc1OCCO`, 808 nM.
In turn, `O=C(Nc1ccc(Cn2nc(Cl)c(N3CCCNCC3)cc2=O)cc1)Nc1ccc(-c2ccccc2)cc1` showed an XC50 of 843 nM.
The value for `Cc1nnc2c(N(C(=O)NCCc3ccccc3)C(=O)NCCc3ccccc3)cc3cc(Cl)ccc3n12` was 954 nM.
The compound `CC1CCC(C(C)C)C(OC(=O)CSc2nnc3c(n2)[nH]c2ccccc23)C1` (stereo not drawn) gave an XC50 of 931 nM.
With `COc1cc(C=NN=c2cc(C)[nH]c3ccccc23)cc(OC)c1OC` the figure was 730 nM; with `CN(C)C(=O)O[C@@H]1CN[C@H](C#Cc2cc3ncnc(Nc4ccc5c(cnn5Cc5cccc(F)c5)c4)c3s2)C1`, 759 nM; with `CN1N=C2c3ccccc3CCC2C1c1ccc(C#N)cc1` (stereo not drawn), 655 nM.
With `O=C1CC(C(=O)O)CC(=O)N1`, the XC50 came to 763 nM.
The value for `N=C(NCCCc1ccccc1)c1cccc(C(=N)NCCCc2ccccc2)n1` was 1380 nM; that for `Clc1ccc2c(NN=Cc3ccccc3)ccnc2c1` was 755 nM.
The value for `CC(C)CNC(=S)N1CCCN(c2nc3ccc(Cl)cc3s2)CC1` was 960 nM; that for `Cc1ccc(CCOCCCCCNCC(O)c2cc(Cl)c(N)c(Cl)c2)cc1` (stereo not drawn) was 945 nM; that for `CN1CCN(c2ccnc3ccc(NC(=O)c4ccc(Cl)c(Cl)c4)cc23)CC1` was 710 nM.
The value for `CC(=NNC(=N)N)c1ccc2ccc3ccccc3c2c1` was 892 nM.
Turning to `Fc1ccc2[nH]c(-c3cccc(-c4ccc(CN5CCN(CCN6CCOCC6)CC5)cc4)c3)nc2c1`, the XC50 is 307 nM.
The value for `CCn1cc(-c2cc(C(=O)Nc3ccc(OC)cc3C)c3ccccc3n2)c(C)n1` was 975 nM; that for `COc1ccc(-c2cnc3[nH]cc(-c4ccncc4)c3c2)cc1OC` was 126 nM.
With `Cc1cc(-c2nc3cncc(-c4cccc(CN5CCCC5Cc5cccnc5)c4)c3n2C)nn1C` (stereo not drawn) the figure was 132 nM; with `CCc1n[nH]c(C(=O)NC2CCN(CC3(c4ccc(OC)cc4)CCCCC3)CC2)c1C`, 892 nM.
The compound `CCc1ccc(CN(Cc2ccc(C)cc2)Cc2ccc(NC(C)=O)cc2)cc1` returned an XC50 of 962 nM.
The value for `O=C1CC(C(=O)Nc2cccc(-c3cccc(-c4nc5ccccc5[nH]4)c3)c2)c2ccccc2N1` (stereo not drawn) was 980 nM; that for `COC(=O)c1ccc(CC(C)NCC(O)c2ccc(Cl)c(Cl)c2)cc1` (stereo not drawn) was 1000 nM; that for `O=C(/C=C/c1ccc(Cl)c(Cl)c1)NC1CCC(CN2CCC(c3c[nH]c4ccccc34)CC2)CC1` (stereo not drawn) was 235 nM.
For the compound `Cc1cc2nc(-c3ccc(OCC(=O)NCc4cccc(C(F)(F)F)c4)cc3)[nH]c2cc1C`, the XC50 turned out to be 988 nM.
With `Cc1ccc(CNC(=O)c2ccc(CN3CCCN(Cc4ccsc4)CC3)cc2)cc1` the figure was 868 nM; with `CN(Cc1ccc(C#N)cc1)C1CCN(c2cc(NC(=O)c3ccc(F)cc3)ccn2)CC1`, 1430 nM.
The value for `CC12CC3CC(C)(C1)CC(Nc1nc(N4CCOCC4)nc4ccccc14)(C3)C2` was 938 nM; that for `CCN(CCCN1CCCCC1)c1cc(C)nc(Nc2ccc(Cl)c(C(F)(F)F)c2)n1` was 173 nM; that for `N=C(NCc1ccccc1)Nc1nc(-c2ccc(OCCCn3ccnc3)cc2)cs1` was 253 nM.
The value for `COc1ccc(C=NN=c2cc(C)[nH]c3ccc(C)cc23)c2ccccc12` was 864 nM; that for `CO/C(=C\C=C\c1cc2cc(Cl)c(Cl)cc2[nH]1)C(=O)NCCN1CCCCC1` was 1400 nM; that for `O=C(/C=C/c1ccccc1O)N1CCC(CCN2CCC(c3c[nH]c4ccccc34)CC2)CC1` was 1340 nM.
`CC(=O)Nc1ccc(S(=O)(=O)NC2=NC(=N)N(OCc3ccc(Cl)c(Cl)c3)C(C)(C)N2)cc1` had an XC50 of 33.9 nM.
With `O=C(Nc1ccccc1)N1CCC(CN2CCOC(c3ccccc3)(c3ccccc3)C2)CC1` the figure was 206 nM.
With `O=C(NC1CCC(CN2CCC(c3c[nH]c4ccccc34)CC2)CC1)c1csc(-c2ccc(C(F)(F)F)cc2Cl)n1` (stereo not drawn) the figure was 827 nM; with `O=[N+]([O-])c1ccc(C(O)P(=O)(c2ccccc2)c2ccccc2)cc1` (stereo not drawn), 341 nM.
`COc1ccc2nc3cc(Cl)ccc3c(Nc3ccc(O)c(CN4CC5CCC(CC5)C4)c3)c2c1` returned an XC50 of 172 nM.
`CCN1CCN(c2cc(C)c3cc(NC(=O)C=Cc4cccc(OC)c4OC)ccc3n2)CC1` displayed an XC50 of 697 nM.
The value for `CSc1ccc(CN2CCC(NC(=O)c3ccc(-c4cccc(C(F)(F)F)c4)s3)CC2)cc1` was 1220 nM.
The value for `Cc1cc(C2CCN(CCCCNC(=O)c3ccc(NC(=O)c4ccc(Cl)cc4)cc3)CC2)c(C)cc1OCCN(C)C` was 766 nM.
`O=C(Nc1cccc(-c2ccc(-c3nc4ccccc4[nH]3)cc2)c1)c1cnn2cccnc12` gave an XC50 of 1060 nM.
The value for `CCN1CCN(c2cc(C)c3cc(NC(=O)c4ccc(OC)c(OC)c4)ccc3n2)CC1` was 1030 nM; that for `CN(C)CCCNCc1cn(S(=O)(=O)c2ccccc2Cl)c2ccccc12` was 1070 nM; that for `CCCCCCCn1c(=O)c(C(=O)Nc2c(C)cccc2C)c(O)c2ccccc21` was 910 nM.
Consider `COc1ccc2cc(C(=O)NC3CCC(CCN4CCc5cc(C#N)ccc5C4)CC3)[nH]c2c1` (stereo not drawn), for which the XC50 was 1010 nM.
The value for `CN(C)CCCc1cc(NC(=O)Nc2cccc(Cl)c2Cl)ccc1I` was 539 nM; that for `CN(C)CCOc1ccnc2ccc(NC(=O)Cc3ccc(-c4ccncc4)c4ccccc34)cc12` was 277 nM; that for `O=C(NC1CCC(CN2CCC(c3c[nH]c4ccccc34)CC2)CC1)c1cc(-c2ccccc2Cl)n(-c2cccc(Cl)c2)n1` (stereo not drawn) was 851 nM.
With `CCCCCC(C)C(C)c1cc(O)c2c(c1)OC(C)(C)CC2c1cc[n+]([O-])cc1` (stereo not drawn), the XC50 was 499 nM.
The compound `CC(Nc1nncc(-c2cccc(F)c2)n1)c1ccc(F)cc1` (stereo not drawn) displayed an XC50 of 791 nM.
With `CC(C)Oc1cc2c(cc1NS(=O)(=O)c1ccc(-c3ccc(Cl)cc3)cc1)CCN(C)CC2` the figure was 1040 nM.
With `CCCCN(CCCC)C(=N)c1cccc2c1CCCC2` the figure was 1560 nM; with `COC(=O)c1cc(NC(=O)Nc2ccc(Cn3ncc(N4CCCNCC4)c(Cl)c3=O)cc2)cc(C(=O)OC)c1`, 708 nM.
With `Cc1cc(NCCC(=O)Nc2ccccc2)nc(NCc2ccccc2C)n1` the figure was 657 nM; with `c1ccc(CNc2nc(NCCc3c[nH]cn3)nc(NCc3cccc4ccccc34)n2)cc1`, 1110 nM.
The compound `Fc1ccc2[nH]c(-c3ccc(-c4cccc(CN5CCC(CCN6CCCCC6)CC5)c4)cc3)nc2c1` returned an XC50 of 136 nM.
With `COc1ccc(CNc2nc(NCc3ccccc3)c3cc(OC)c(OC)cc3n2)cc1OC` the figure was 540 nM.
With `Clc1ccccc1CNc1noc(-c2sccc2Br)n1` the figure was 787 nM; with `Nc1nc(N)c2c(Cc3ccccc3)cccc2n1`, 828 nM.
`CC(C)N1CCN(C(CN2CCN(CCCOc3cccc(-c4ccccc4)c3)CC2)c2ccc(F)cc2)CC1` (stereo not drawn) displayed an XC50 of 892 nM.
The value for `FC(F)(F)c1ccc2[nH]c(-c3cccc(-c4ccc(CNCCN5CCNCC5)cc4)c3)nc2c1` was 862 nM; that for `Cc1ccc(Oc2ccc(CNc3nc(Nc4cccc(F)c4)nc(Nc4cccc(F)c4)n3)cc2)cc1` was 1210 nM; that for `CNC(=O)c1cnc(Nc2ccc(OCC(O)CN(C)C)cc2)nc1Nc1cccc(OC)c1` (stereo not drawn) was 319 nM.
The value for `Cc1n[nH]c2ccc(-c3cc(OC[C@@H](N)Cc4ccccc4)cnc3-c3ccc(OCc4cccc(F)c4)cc3)cc12` was 730 nM; that for `CN(C)c1ccc(-c2cscc2C(=O)NC2CCCN(Cc3cccnc3)C2)cc1` (stereo not drawn) was 859 nM.
With `O=C(Nc1ccc(SC(F)(F)F)cc1)Nc1ccnc2ccccc12` the figure was 746 nM.
In turn, `O=C(Nc1ccnc2ccccc12)NC1CCN(Cc2ccccc2)CC1` registered an XC50 of 988 nM.
With `COCCN(C)c1ccc(C(=O)Nc2ccccc2)cc1NS(=O)(=O)Cc1ccccc1` the figure was 571 nM; with `Cc1ccccc1C1CCN(C2CCC(NC(=O)/C=C/c3ccc(F)cc3)CC2)CC1` (stereo not drawn), 1340 nM.
The value for `Cc1[nH]c2ccccc2c1C1CCN(CC2CCC(NC(=O)/C=C/c3ccc(Cl)c(Cl)c3)CC2)CC1` (stereo not drawn) was 822 nM; that for `Cc1cccc2nc(-c3cccc(-c4ccc(NC(=O)C(C)(C)c5ccccn5)cc4)c3)[nH]c12` was 685 nM; that for `COc1ccc(CNc2ncnc3c2[nH]c2ccc(F)cc23)cc1` was 980 nM.
The value for `Cc1cc(N2CCC(N(C)C)C2)nc(Nc2ccc(Cl)cc2)n1` (stereo not drawn) was 517 nM.
In turn, `CCCCCCn1c(Sc2ccc(C#N)c([N+](=O)[O-])c2)nnc1-c1ccc(Cl)cc1` had an XC50 of 832 nM.
The value for `CC(C)(C)c1cc(Cn2ccnc2)cc(C(C)(C)C)c1O` was 1040 nM; that for `Nc1nc(N)c2c(ccc3c2ccn3Cc2ccc(-c3ccccc3)cc2)n1` was 48.3 nM.
The value for `COc1ccc(-c2ccnc(-c3cccc(-c4ccccn4)n3)c2)cc1` was 824 nM; that for `CN1CCC(COc2ccc(CN3CCC(NC(=O)c4cccc(Cl)c4)CC3)cc2)CC1` was 889 nM.
As to `Nc1ncc(-c2cn[nH]c2)cc1-c1nc2ccc(F)cc2[nH]1`, the XC50 was 729 nM.
With `CCN(CC)CCN1C(=O)c2oc3ccc(Cl)cc3c(=O)c2C1c1ccc(SC)cc1` (stereo not drawn) the figure was 1060 nM.
In the case of `CC(C)(CNCc1ccccc1)c1nc(-c2ccc(Cl)c(O)c2)c(-c2ccncc2)[nH]1`, the XC50 came to 537 nM.
In the case of `Cc1cccc(C(=O)Nc2ccc(N3CCCN(Cc4cccc(O)c4)CC3)cc2)c1`, the XC50 came out at 1420 nM.
